Patent US12685726B2, “Sulfoximines as inhibitors of NaV1.8” (Gruenenthal GmbH, priority 2022, dated 2026)

Target: T1, human NaV 1.8 (Homo sapiens, UniProt Q9Y5Y9)
T1 construct: expressed in transfected cells; host or cells: HEK (recombinant cell line)
Assay: Automated whole-cell patch clamp (Qube384) voltage-clamp recordings of sodium currents in HEK-NaV1.8 cell line
Type: cell-based
Details: read-out: Potency category (human NaV 1.8 IC50)
Procedure, shortened: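 HEK cells expressing NaV1.8 with b3, whole-cell automated voltage clamp at room temperature or 19° C.; CsF-based internal, pH 7.4 external. State-dependent (−120 mV, V1/2 4 s, −10 mV test pulses) and 10/20 Hz 40-pulse protocols; ~12 min compound, vehicle-corrected, IC50 by 4-parameter logistic fit.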

T1 sequence (Q9Y5Y9 whole entry): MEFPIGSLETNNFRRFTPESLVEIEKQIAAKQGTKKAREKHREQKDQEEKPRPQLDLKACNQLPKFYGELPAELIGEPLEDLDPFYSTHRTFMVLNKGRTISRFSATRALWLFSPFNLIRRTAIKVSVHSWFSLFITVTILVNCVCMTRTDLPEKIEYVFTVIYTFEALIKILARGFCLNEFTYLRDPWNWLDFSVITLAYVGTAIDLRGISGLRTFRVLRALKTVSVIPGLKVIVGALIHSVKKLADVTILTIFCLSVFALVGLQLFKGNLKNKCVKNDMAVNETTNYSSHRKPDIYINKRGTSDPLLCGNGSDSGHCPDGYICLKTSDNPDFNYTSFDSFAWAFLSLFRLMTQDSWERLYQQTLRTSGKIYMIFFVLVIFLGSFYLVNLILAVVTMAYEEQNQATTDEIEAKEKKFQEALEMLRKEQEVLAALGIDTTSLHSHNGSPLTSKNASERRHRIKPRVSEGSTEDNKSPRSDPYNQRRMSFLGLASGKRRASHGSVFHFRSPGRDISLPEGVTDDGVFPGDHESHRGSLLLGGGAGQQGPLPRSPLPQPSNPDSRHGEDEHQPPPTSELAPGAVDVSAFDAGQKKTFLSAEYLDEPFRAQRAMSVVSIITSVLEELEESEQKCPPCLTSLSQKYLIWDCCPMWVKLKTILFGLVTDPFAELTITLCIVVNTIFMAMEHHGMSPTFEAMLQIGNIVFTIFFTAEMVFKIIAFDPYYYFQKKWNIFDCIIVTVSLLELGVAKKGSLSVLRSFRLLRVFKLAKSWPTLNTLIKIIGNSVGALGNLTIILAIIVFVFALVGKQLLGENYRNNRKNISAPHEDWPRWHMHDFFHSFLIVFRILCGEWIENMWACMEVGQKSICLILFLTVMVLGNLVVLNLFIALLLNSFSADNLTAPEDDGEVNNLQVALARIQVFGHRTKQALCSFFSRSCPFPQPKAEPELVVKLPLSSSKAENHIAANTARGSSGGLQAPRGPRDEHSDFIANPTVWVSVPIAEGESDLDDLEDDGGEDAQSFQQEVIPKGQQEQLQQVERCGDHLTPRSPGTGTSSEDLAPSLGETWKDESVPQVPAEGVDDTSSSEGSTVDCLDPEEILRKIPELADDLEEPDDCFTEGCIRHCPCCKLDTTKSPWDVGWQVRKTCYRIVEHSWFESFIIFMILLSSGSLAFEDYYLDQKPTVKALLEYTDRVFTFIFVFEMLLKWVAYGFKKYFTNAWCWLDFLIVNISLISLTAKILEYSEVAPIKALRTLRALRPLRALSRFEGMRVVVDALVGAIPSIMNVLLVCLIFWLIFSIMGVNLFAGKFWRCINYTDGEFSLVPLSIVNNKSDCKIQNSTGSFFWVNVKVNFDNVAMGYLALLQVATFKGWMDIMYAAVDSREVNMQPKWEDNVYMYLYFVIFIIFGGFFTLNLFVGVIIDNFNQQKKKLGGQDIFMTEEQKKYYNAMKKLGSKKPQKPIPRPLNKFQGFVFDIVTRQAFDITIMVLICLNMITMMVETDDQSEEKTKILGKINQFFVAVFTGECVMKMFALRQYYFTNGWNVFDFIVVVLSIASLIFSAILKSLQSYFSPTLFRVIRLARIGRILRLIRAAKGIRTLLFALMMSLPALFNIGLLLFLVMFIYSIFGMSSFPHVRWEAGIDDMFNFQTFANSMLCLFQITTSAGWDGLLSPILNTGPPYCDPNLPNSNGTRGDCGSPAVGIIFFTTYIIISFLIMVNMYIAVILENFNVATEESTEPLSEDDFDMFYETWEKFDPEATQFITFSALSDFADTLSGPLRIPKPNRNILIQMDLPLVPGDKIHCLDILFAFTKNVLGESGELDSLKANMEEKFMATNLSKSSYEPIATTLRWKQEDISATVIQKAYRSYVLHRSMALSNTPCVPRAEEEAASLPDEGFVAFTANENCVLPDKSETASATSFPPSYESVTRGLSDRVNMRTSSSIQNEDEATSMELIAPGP

SMILES	IC50
Cc1c(C(C)(F)F)nn(CC2(C)CCC(F)(F)CC2)c1C(=O)Nc1ccnc(S(C)(=N)=O)c1 (single isomer, unassigned) [Example 11a, 1-((4,4-difluoro-1-methylcyclohexyl)methyl)-3-(1,1-difluoroethyl)-4-methyl-N-(2-(S-methylsulfonimidoyl)pyridin-4-yl)-1H-pyrazole-5-carboxamide]	≤ 100 nM
CC1(Cn2nc(C3CC3)c(C(F)(F)F)c2C(=O)Nc2ccc(F)c(S(C)(=N)=O)c2)CC(F)(F)C1 (single isomer, unassigned) [Example 132a, 3-Cyclopropyl-1-((3,3-difluoro-1-methylcyclobutyl)methyl)-N-(4-fluoro-3-(S-methylsulfonimidoyl)phenyl)-4-(trifluoromethyl)-1H-pyrazole-5-carboxamide]	≤ 100 nM
C[S@](=N)(=O)c1cccc(NC(=O)c2c(C(F)(F)F)c(C3(F)CC3)nn2CC2C[C@@H]2C(F)(F)F)c1 (single isomer, unassigned) [Example 134b, 3-(1-Fluorocyclopropyl)-N-(3-(S-methylsulfonimidoyl)phenyl)-4-(trifluoromethyl)-1-(((trans)-2-(trifluoromethyl)cyclopropyl)methyl)-1H-pyrazole-5-carboxamide]	≤ 100 nM
CS(=N)(=O)c1cc(NC(=O)c2c(C(F)(F)F)c(C3CC3)nn2CC23CC(C(F)(F)F)(C2)C3)ccn1 (single isomer, unassigned) [Example 23a, 3-cyclopropyl-N-(2-(S-methylsulfonimidoyl)pyridin-4-yl)-4-(trifluoromethyl)-1-((3-(trifluoromethyl)bicyclo[1.1.1]pentan-1-yl)methyl)-1H-pyrazole-5-carboxamide]	≤ 100 nM
CS(=N)(=O)c1cc(NC(=O)c2c(C(F)(F)F)c(C3CC3)nn2CC2C(F)(F)C23CCC3)ccn1 (single isomer, unassigned) [Example 136c, 3-Cyclopropyl-1-((2,2-difluorospiro[2.3]hexan-1-yl)methyl)-N-(2-(S-methylsulfonimidoyl)pyridin-4-yl)-4-(trifluoromethyl)-1H-pyrazole-5-carboxamide]	≤ 100 nM
CC(=O)N1CC2(CCC2Cn2nc(C3CC3)c(C(F)(F)F)c2C(=O)Nc2ccnc(S(C)(=N)=O)c2)C1 (single isomer, unassigned) [Example 140b, 1-((2-Acetyl-2-azaspiro[3.3]heptan-5-yl)methyl)-3-cyclopropyl-N-(2-(S-methylsulfonimidoyl)pyridin-4-yl)-4-(trifluoromethyl)-1H-pyrazole-5-carboxamide]	100 to 1000 nM
CS(=N)(=O)c1cc(NC(=O)c2c(C(F)(F)F)c(C3CC3)nn2CC2CCC23CNC3)ccn1 (single isomer, unassigned) [Example 153c, 1-((2-Azaspiro[3.3]heptan-5-yl)methyl)-3-cyclopropyl-N-(2-(S-methylsulfonimidoyl)pyridin-4-yl)-4-(trifluoromethyl)-1H-pyrazole-5-carboxamide]	1000 to 10000 nM
C[S@](=N)(=O)c1cc(NC(=O)c2c(C(F)(F)F)c(C3CC3)nn2C[C@@H]2C(F)(F)C23CC3)ccn1 (single isomer, unassigned) [Example 79d, 3-cyclopropyl-1-((2,2-difluorospiro[2.2]pentan-1-yl)methyl)-N-(2-(S-methylsulfonimidoyl)pyridin-4-yl)-4-(trifluoromethyl)-1H-pyrazole-5-carboxamide]	≤ 100 nM
Cc1c(C(C)(F)F)nn(CC2CCC(F)(F)C2)c1C(=O)Nc1ccnc(S(C)(=N)=O)c1 (stereo not shown) [Example 4, 1-((3,3-Difluorocyclopentyl)methyl)-3-(1,1-difluoroethyl)-4-methyl-N-(2-(S-methylsulfonimidoyl)pyridin-4-yl)-1H-pyrazole-5-carboxamide]	≤ 100 nM
CS(=N)(=O)c1cc(NC(=O)c2c(C(F)(F)F)c(C3CC3)nn2CC2CCC23CNC3)ccn1 (single isomer, unassigned) [Example 153d, 1-((2-Azaspiro[3.3]heptan-5-yl)methyl)-3-cyclopropyl-N-(2-(S-methylsulfonimidoyl)pyridin-4-yl)-4-(trifluoromethyl)-1H-pyrazole-5-carboxamide]	1000 to 10000 nM
